Results taken from US20200140951A9, “Transcriptional system and uses thereof for single cell detection” (Université Laval, priority 2017, published 2020).
“And” between values parts separate entries of the source, which are not always exact repeats. Identical values can stand only once.

Key:
22Rv1 cells [1] = test: Growth curves of PCa cells (cell counter); type: cell-based; details: DHT 1 nM + antiandrogen 10 μM; six days of culture
Protocol: The cells were trypsinized and counted using a cell counter after six days of culture. Relative cell count=number of cells at each time point÷number of cells at 0 h. Data represent technical triplicates±SD.

[2] = test system: AR transcriptional activity in 22Rv1-GFP cells; details: DHT 1 nM + antiandrogen 10 μM; 48 h
Protocol: (§1) (A) Scheme for targeting spiked PCa cells from urine. (B) PCa cells (22Rv1 stably expressing mCherry) were spiked in the urine of an healthy individual. […] Seventy-two hours after infection the cells were imaged by adding D-luciferin substrate and with an exposure time of 5 min per image using the bioluminescence microscope. […] Urine samples from healthy patients were spiked with 250 PCa cells stably expressing GFP (22Rv1-GFP or LAPC4-GFP). Urine was spun down to collect all the cells. These cells were infected with 5×10^5 virus particles of PCA3-Cre-PSEBC-ITSTA. […] Forty-eight hours post treatment imaging was repeated to assess response on the same cells to determine change in luciferase expression. Relative grey intensity=((sum grey intensity per ROI−sum grey intensity of background)÷sum grey intensity at 0 h)×100).
(§2) Urine samples from healthy patients were spiked with 250 PCa cells stably expressing GFP (22Rv1-GFP or LAPC4-GFP). Urine was spun down to collect all the cells. These cells were infected with 5×10^5 virus particles of PCA3-Cre-PSEBC-ITSTA. […] Forty-eight hours post treatment imaging was repeated to assess response on the same cells to determine change in luciferase expression. Relative grey intensity=((sum grey intensity per ROI−sum grey intensity of background)÷sum grey intensity at 0 h)×100).

[3] = test system: AR transcriptional activity in LAPC4-GFP cells; details: 48 h
Protocol: as §1, §2

[4] = test system: AR transcriptional activity in PCa cells from urine/bladder wash of patients
From the text: (A) & (B) Images show the H&E staining and IHC using anti-PSA for castration sensitive prostate cancer (CSPC) and castration resistance prostate cancer (CRPC) patients, case 9 and 11 respectively. (C), (D), (E) & (F) Graphs show single cell response to treatment detected with PCA3-Cre-PSEBC-ITSTA in PCa cells from case 9 and 11. Urine/bladder wash from patients post-DRE was sampled and spun down to collect all the cells. These cells were infected with 5×10^5 virus particles of PCA3-Cre-PSEBC-ITSTA. […] Forty-eight hours post treatment imaging was repeated to assess response on the same cells to determine change in expression. Relative grey intensity=((sum grey intensity per ROI−sum grey intensity of background)÷ sum grey intensity at 0 h)×100).
(D) Images show the H&E staining and IHC using anti-PSA for castration resistance prostate cancer (CRPC) patients 11. […] Urine or bladder wash from patients was sampled and spun down to collect all the cells. These cells were infected with 5×10^5 virus particles of PCA3-Cre-PSEBC-ITSTA. […] Forty-eight hours post treatment imaging was repeated to assess response on the same cells.
Forty-eight hours later, single cell bioluminescence was measured again. Single cell response to antiandrogen was determined and cells were considered as resistant if luciferase activity increased despite antiandrogen treatment.
Forty-eight hours post-treatment, single cell bioluminescence was measured again. For case 22, sampling was done as a naïve state before any treatment was received. Similar analysis as cell lines was performed.
The above described procedure for isolation was used to isolate cells from these samples. The samples were then infected with 5×10^5 ivp of PCA3-Cre-PSEBC-TSTA-fl adenovirus. […] Forty-eight hours later, bioluminescence imaging was repeated on the same cells. Percentage of targeted cells=(number bioluminescence positive cells÷number m-cherry positive cells)×100. The sum of gray intensity values was determined for single cells before and after treatment using CellSens software. Relative gray intensity=((sum gray intensity per ROI−sum gray intensity of background)÷sum gray intensity at 0 h)×100).

22Rv1 cells [5] = test: Viability assay (resazurin); type: cell-based; details: DHT 1 nM + antiandrogen 10 μM
Protocol: (§3) LAPC4, and 22Rv1 cells were seeded. […] The cells proliferation was measured using resazurin. Relative cell count=(Fluorescence at each time point÷fluorescence at 0 h). Data represents technical triplicates±SD.

LAPC4 cells = test: Viability assay (resazurin); type: cell-based; details: DHT 1 nM + antiandrogen 10 μM
Protocol: as §3

[6] = test system: AR activity in LAPC4-GFP single cells; test: Single cell treatment response, PSEBC-TSTA bioluminescence microscopy; type: cell-based; details: for cells with decrease in fl activity / cells with increase in fl activity: n=10 cells, 48 h treatment, DHT 1 nM or DHT+Enz 1 nM+10 μM
Protocol: Forty-eight hours post-infection, the cells were imaged after D-luciferin addition. […] GFP biofluorescence imaging was then performed every 5 h to track the cells. After 48 hours of treatment, luciferase imaging was repeated to determine the change in fl expression. […] The corresponding cells tracked and imaged by biofluorescence microscopy is also shown. […] LAPC4-GFP cells were infected with PCA3-3STA, treated and imaged as described in (A). (D) Upper panel: Scheme of the method used to isolate and image spiked PCa cells from blood. […] Every 5 h, GFP biofluorescence imaging was performed to track the cells. At 48 h, luminescence imaging was repeated to determine single cell fl expression changes. Lower panels: Biofluorescence and bioluminescence images of blood spiked-LAPC4-GFP cells transduced with PSEBC-TSTA after PCa cell isolation. (E) Bioluminescence microscopy quantification of single cell responses to AR-antagonists after PSEBC-TSTA transduction of PCa spiked cells (LAPC4-GFP). Relative grey intensity=((sum grey intensity per ROI−sum grey intensity of background)÷sum grey intensity at 0 h)×100. Data represent technical triplicates±SD.
Forty-eight hours after infection, the cells were imaged by adding D-luciferin and an exposure time of 15 secs per image under bioluminescence microscopy. […] GFP biofluorescence imaging was performed every 5 h to track the cells. After 48 hours, luminescence imaging was performed again on the same cells to determine the changes in fl activity. Relative grey intensity was quantified for n=10 cells in each treatment condition before and after treatment. Relative grey intensity=((sum grey intensity per ROI−sum grey intensity of background)÷sum grey intensity at 0 h)×100. Each ROI defines a single cell.
To track the change in position and growth of single cells in which fl activity was measured, biofluorescence microscopy imaging was performed every 5 h for 48 h (GFP-positive cells) after which time bioluminescence imaging and quantification were repeated on the same cells. Sum grey intensity was then determined for single cells before and after treatment using the cellSens soft-ware. Relative grey intensity=((sum grey intensity per ROI−sum grey intensity of background)÷sum grey intensity at 0 h)×100.

[7] = test system: AR transcription in LNCaP-GFP cells; test: Single cell treatment response of spiked cells isolated from blood, PSEBC-TSTA; type: cell-based; details: DHT+Enz 1 nM+10 μM; 48 h
Protocol: FIG. 15 LNCaP cells displaying greater cell-to-cell AR-transcriptional homogeneity upon treatment when compared to LAPC4 cells. […] Forty-eight hours after infection, the cells were imaged after an exposure time of 15 secs per image under bioluminescence microscopy. […] Biofluorescence microscopy imaging was performed for each well for 48 h, with images taken every 5 h to track the cells. Luciferase imaging was performed again on the same cells to determine the change in fl expression.
Blood was collected from a healthy donor and placed in a heparin-coated tube. This study was approved by the Institutional Review Board of the CHU de Quebec Hospital, Quebec, QC, Canada. Informed consent was obtained by the donor for blood sampling. All experiments were performed in accordance with relevant guidelines and regulations. LAPC4 and LNCaP cells were added to the blood sample (500 cells/3 ml of blood), followed by a custom-made RosetteSep cocktail ([…] Technologies, Vancouver, BC, Canada) at a volume of 50 μl per ml. The sample was gently mixed and incubated thereafter at room temperature for 20 min. Fifteen milliliters of Ficoll-Paque Plus (GE healthcare Life Sciences, Mississauga, ON, Canada) were then placed in a 50 ml SepMate tube ([…] Technologies) 31 and blood was poured gently along the walls of the tube onto the Ficoll layer. […]

SMILES	growth inhibition (relative cell count) (22Rv1 cells [1])	percentage of cells with increased activity relative to DHT treated group [2] [%]	cells with decrease in luciferase activity ([3]; DHT 1 nM + Bic 10 μM) [%]	cells with increase in luciferase activity ([3]; DHT 1 nM + Bic 10 μM) [%]	percentage of cells with increased activity relative to DHT treated group ([3]; DHT 1 nM + antiandrogen 10 μM) [%]	cells with decrease in PSEBC activity [4]	cells with increase in fl expression [4] [%]	level of AR activity of AR active cells (relative mean luminescence activity per cell) [4] [%]	urine PCa cells with increase in PSEBC promoter dependent fl activity compared to DHT only group [4]	urine tumor cells AR active (relative fraction of AR active cells) [4] [%]	growth inhibition (resazurin proliferation) (22Rv1 cells [5])	growth inhibition (resazurin proliferation) (LAPC4 cells)	effect on DHT induction of sum of fl activity of ten single cells ([6]; DHT 1 nM + antiandrogen 10 μM, 48 h)	cells with decrease in fl activity [6] [%]	cells with increase in fl activity [6] [%]	single cell AR transcriptional response pattern [7]	induction of sum of fl activity of ten single cells ([6]; DHT 1 nM, 48 h) [fold]
CC(O)(CS(=O)(=O)c1ccc(F)cc1)C(=O)Nc1ccc(C#N)c(C(F)(F)F)c1 (centres unmarked) [Bic, bicalutamide]	not inhibited	114	60	40	14	80% and 60%	50	418.5	44% and 67%	63	–	–	–	–	–	–	–
CNC(=O)c1ccc(N2C(=S)N(c3ccc(C#N)c(C(F)(F)F)c3)C(=O)C2(C)C)cc1F [Enz, enzalutamide]	–	–	–	–	–	–	–	–	–	–	did not display inhibited growth	displayed inhibited growth	inhibited	70	30	homogeneous response	–
C[C@]12CCC(=O)C[C@@H]1CC[C@@H]1[C@@H]2CC[C@]2(C)[C@@H](O)CC[C@@H]12 [DHT, dihydrotestosterone]	–	–	–	–	–	60%	–	–	–	–	–	–	–	20	80	–	8.8
